Measurements as given in publication PMC8912030, “Secondary Metabolites with Anti-Inflammatory from the Roots of Cimicifuga taiwanensis” (Molecules, 2022).
Like-named read-outs stand apart in the source and are kept apart here.

Legend:
[1] = test system: RAW 264.7 macrophages; test: Cell viability (MTT assay); format: cell-based, mouse
Experimental: (§1) The cytotoxic effects were tested using an MTT experiment.
(§2) The mouse macrophage cell line (RAW 264.7) was obtained from the Bioresource Collection and Research Center (BCRC 60001) and cultured at 37 °C in Dulbecco’s Modified Eagle’s Medium (DMEM) supplemented with 10% fetal bovine serum (Gibco), 4.5 g/L glucose, 4 mM glutamine, penicillin (100 units/mL), and streptomycin (100 μg/mL) in a humidified atmosphere in a 5% CO2 incubator. The cells were treated with 10, 25, and 50 μM of natural products in the presence of 1 μg/mL lipopolysaccharide (LPS, Sigma-Aldrich) for 20 h. The concentration of NO in the culture supernatants was determined to be nitrite, a major stable product of NO, by a Griess reagent assay, and cell viabilities were determined using the MTT assay as described previously.

[2] = test system: LPS-activated NO production in RAW 264.7 macrophages; test: Inhibition of LPS-induced NO production (Griess reagent assay, nitrite); format: cell-based, mouse; conditions: for IC50: Mus musculus, read-out: IC50 NO; for NO inhibitory activity (in words): LPS-induced NO production in RAW 264.7; for fold NO inhibitory activity compared with quercetin: ratio to quercetin IC50 34.58 μM
Experimental: The anti-inflammatory activities of the 5 isolates (2–6) in sufficient amounts were evaluated by examining their inhibitory effects on lipopolysaccharide (LPS)-induced inducible nitric oxide synthase (iNOS)-dependent NO 6 production in the murine macrophage cell line RAW 264.7 (Table 4). From the results of our anti-inflammatory tests, the following conclusions could be drawn.
as §2

[3] = Cell viability (MTT assay); format: cell-based, mouse; conditions: mouse
Experimental: as §1, §2

[4] = RAW264.7, RAW 264.7, 1 μg/mL LPS, 20 h, mean ± SEM (n = 4) of 3 independent experiments

Structure (SMILES)	Cell Viability (% Control) ([1]; RAW 264.7, MTT, mean ± SEM, concentration not given in table (text: 50 μM))	IC50 [2, 4]	Cell Viability (% Control) ([1]; 50 µM)	viability at 20 h, 50 µM [3]	NO inhibitory activity (in words) [2]	fold NO inhibitory activity compared with quercetin [2]	melting point	NO inhibitory activity (in words) ([2]; listed as Cimicitaiwanin E)	IC50 ([2]; RAW264.7, 20 h)
O=c1c(O)c(-c2ccc(O)c(O)c2)oc2cc(O)cc(O)c12 [Quercetin, quercetin, reference compound]	95.56 ± 1.91 % Control	34.6 ± 2.34 µM	–	–	–	–	–	–	–
CC(=O)OC(C)(C)C1OC23OC1CC(C)C2C1(C)CCC2=C(CCC4C(=CCC(OC5OCC(O)C(O)C5O)C4(C)C)C2)C1(C)C3O (stereo not drawn) [Compound 4, cimicitaiwanin D]	–	10.1 ± 0.47 µM	91.12 ± 4.22 % Control	91%	showed inhibitory activities	three	–	–	–
CC(=O)OC(C)(C)C1OC23OC1CC(C)C2C1(C)CC(=O)C2=C(C(O)CC4C5(CCC(O5)C4(C)C)C2)C1(C)C3O (stereo not drawn) [Compound 3, 25-O-acetyl-7β-hydroxy-11-oxoacerinol]	–	6.54 ± 0.87 µM	95.53 ± 3.39 % Control	95%	showed inhibitory activities	five	103 to 105 °C	–	–
CC1CC2OC3(OC2C(C)(C)O)C1C1(C)CCC24CC25C=CC(=O)C(C)(C)C5CC=C4C1(C)C3O (stereo not drawn) [Compound 5, cimicitaiwanin E]	–	–	88.54 ± 1.50 % Control	89%	moderate	–	–	showed inhibitory activities	24.6 ± 4.97 µM
CC(=O)OC(C)(C)C1OC23OC1CC(C)C2C1(C)C(O)CC2=C(CCC4C5(CCC(O5)C4(C)C)C2)C1(C)C3O (stereo not drawn) [Compound 2, 25-O-acetyl-12β-hydroxyacerinol]	–	8.37 ± 3.25 µM	69.14 ± 2.87 % Control	< 80%	–	about four	–	–	–
CC(C=CC1C(C)CC(O)CC1(C)C)=CC(=O)O [Compound 6, rel-(2E,4E)-5-((3S,5R,6R,)-4-hydroxy-2,2,6-trimethylcyclohexyl)-3-methylpenta-2,4-dienoic acid]	–	15.4 ± 0.85 µM	86.84 ± 2.95 % Control	87%	showed inhibitory activities	two	–	–	–
